From ChEMBL document CHEMBL1155745, “Constituents of the root bark of Severinia buxifolia collected in Hainan” (2001)
≈ marks a conversion by molar mass, not a printed value. Calls of active or inactive are those of the source. The calls are words filed in the database; no cut-off is given here.

What was measured:
Hep 3B2 = assay: (§1) Cytotoxicity against human Hep3B cells; assay type: functional
KB = assay: Cytotoxicity against human KB cells; assay type: functional; details: for EC50: read-out: ED50 (the source's name)
COLO 205 = assay: Cytotoxicity against human COLO205 cells; assay type: functional; details: for EC50: read-out: ED50 (the source's name)
[1] = as §1; assay type: functional, Hep 3B2; details: read-out: ED50 (the source's name)

| Structure (SMILES) | ED50 (Hep 3B2) | ED50 (KB) | EC50 (COLO 205) [µg/mL] | EC50 [1] [µg/mL] | EC50 (KB) [µg/mL] | ED50 (COLO 205) |
| --- | --- | --- | --- | --- | --- | --- |
| COc1c(/C=C/C(C)C)c(O)c2c(=O)c3cccc(O)c3[nH]c2c1CC=C(C)C | inactive | inactive | 1.2 (≈ 3.05 µM) |  |  |  |
| CC(C)=CCc1c2c(c(O)c3c(=O)c4ccccc4[nH]c13)C=CC(C)(C)O2 | inactive | inactive | 0.58 (≈ 1.6 µM) |  |  |  |
| COc1c(O)ccc2c(=O)c3c(O)cc(O)c(OC)c3n(C)c12 |  |  |  | 5.3 (≈ 16.7 µM) | 0.22 (≈ 0.693 µM) | inactive |
| COc1c(O)cc(O)c2c(=O)c3cccc(O)c3n(C)c12 [CITRUSININE-II] | inactive |  |  |  | 0.82 (≈ 2.85 µM) | inactive |
| CC(C)=CCc1c2c(c3[nH]c4ccccc4c(=O)c3c1O)C=CC(C)(C)O2 [SEVERIFOLINE] | inactive |  |  |  | 0.09 (≈ 0.249 µM) | inactive |
| COc1cc(O)c2c(=O)c3cccc(O)c3n(C)c2c1OC [CITRUSININE-I] |  |  | 6.3 (≈ 20.9 µM) | 6.6 (≈ 21.9 µM) | 0.09 (≈ 0.299 µM) |  |
